Data reported in patent publication US20090123389A1, “Methods for modulating Th17 cell development in the treatment and prevention of cellulite” (priority 2007, published 2009).

What was measured:
STAT3 = assay: Kinetics of STAT3 phosphorylation in developing Th17 cells; format: cell-based, mouse; settings: TGFβ plus IL-6
Experimental: FIG. 11A is a series of graphs depicting representative histograms displaying the kinetics of STAT3 phosphorylation in developing Th17 cells treated with or without HF. Resting naïve T cells (shaded peak), T cells activated in the presence of TGFβ plus IL-6 (TGFβ/IL-6) treated with 10 nM MAZ1310, TGFβ/IL-6-activated T cells treated with 5 nM HF, TGFβ/IL-6-activated T cells treated with 10 nM HF. T cells were fixed at the indicated times and intracellular phospho-STAT3 staining was performed.
Whole cell lysates were generated at the indicated times following activation, and western blotting was performed using the indicated antibodies.
FACS analyses and sorting: All cell surface staining was performed in FACS buffer (PBS/2% FCS/0.1% NaN3) and antibodies were incubated with cells on ice for 20-30 minutes. Cells were washed with FACS buffer and fixed with FACS buffer plus 1% paraformaldehyde prior to data acquisition. For phospho-STAT3 intracellular staining, stimulated T cells cultured with or without TGFβ plus IL-6 for the indicated times were harvested on ice and fixed in PBS plus 2% paraformaldehyde for 10 minutes at 37° C. […] All FACS data was acquired on a FACSCalibur flow cytometer (BD Pharmingen) and analyzed using FlowJo software (Treestar, Inc., Ashland, Oreg.). […]

[1] = tested on: amino acid response (AAR) pathway; assay: eIF2α phosphorylation and ATF4 protein in T cells (immunoblot); format: cell-based, mouse
Experimental: Whole cell lysates were prepared 4 hours-post TCR activation and immunoblotting was performed with the indicated antibodies. ATF4 protein is indicated by arrowhead. NS—non-specific band.
FIG. 12E is an illustration depicting immunoblot analysis of purified CD4^+ CD25^− T cells activated through the TCR for the indicated times without exogenous cytokines in the presence of either 10 nM MAZ1310 or 10 nM HF as indicated. Whole cells lysates were prepared during the timecourse and immunoblotting was performed.
Cultures were further supplemented with either 10 nM MAZ1310 or 10 nM HF as indicated. Whole cell lysates were generated 4 hours after activation and immunoblotting was performed. Microarray data were generated from triplicate samples and all other data are representative of at least 2 similar experiments.
(§1) Western blotting: Whole cell lysates were generated from T cells activated for the indicated times. For STAT3 and Smad2/3 western blots cells were harvested, washed in PBS and lysed in 50 mM Tris, pH 7.4, 0.1% SDS, 1% Triton-×100, 140 mM NaCl, 1 mM EDTA, 1 mM EGTA supplemented with protease inhibitors tablets (Roche—Germany), 1 mM NaF and 1 mM Na3VO4. For eIF2α and ATF4 western blots, cells were harvested as above and lysed in 50 mM Tris, pH 7.4, 2% SDS, 20% glycerol and 2 mM EDTA supplemented with protease and phosphatase inhibitors as above. All lysates were cleared via centrifugation and 15-30 μg of protein was resolved by SDS-PAGE. Protein was transferred to nitrocellulose membranes, blocked and blotted using specific antibodies. Antibodies used for western blot analysis were anti-phospho-Smad2, anti-STAT3 (pY705), anti-STAT3, anti-eIF2α^pS51, anti-eIF2α, anti-GCN2^pT898, anti-GCN2 (all from cell signaling technology, Danvers, Mass.). Anti-ATF4/CREB2 and anti-β-actin were purchased from Santa Cruz biotechnology (Santa Cruz, Calif.). HRP-conjugated secondary antibodies were all purchased from Sigma, with the exception of HRP-conjugated anti-armenian hamster antibody (Jackson Immunoresearch—West Grove, Pa.).

SV-MES mesangial cells = assay: eIF2α phosphorylation in SV-MES mesangial cells (western blot); format: cell-based; settings: 20 nM HF, 2 hours
Experimental: SV-MES mesangial cells were stimulated for 2 hours with DMSO, 20 nM MAZ1310 or 20 nM HF. Whole cell lysates were analyzed for expression of phosphorylated or total eIF2α or GCN2 by western blotting.
as §1, with “HRP-conjugated secondary antibodies were all purchased from Sigma, with the exception of HRP-conjugated anti-armenian hamster antibody (Jackson Immunoresearch—West Grove, Pa.).” left out

fibroblasts = assay: Protein synthesis, proliferation and death of cultured fibroblasts; format: cell-based

Structure (SMILES): O=C(CC1NCCCC1O)Cn1cnc2cc(Br)c(Cl)cc2c1=O (racemic) [HF, 7-bromo-6-chloro-3-[3-(3-hydroxy-2-piperidinyl)-2-oxopropyl]-4(3H)-quinazolinone]
- STAT3 activation during the first 6 hours of Th17 differentiation (STAT3; 5 or 10 nM HF): did not interfere
- maintenance of STAT3 phosphorylation (STAT3; beginning around 12 hours-post activation): decreased the maintenance of STAT3 phosphorylation
- time at which eIF2α phosphorylation reached maximum levels ([1]; 10 nM HF): ≤ 2 h
- time until which ATF4 protein continued to accumulate ([1]; 10 nM HF): 4 h
- eIF2α phosphorylation in resting naïve T cells and T cells in Th17, ThN, Th1, Th2 and iTreg conditions ([1]; 10 nM HF, 4 hours): induced eIF2α phosphorylation
- induction of ATF4 expression by T cell state ([1]; 10 nM HF, 4 hours): in all differentiated T cells but not in naïve T cells
- HF concentration at which eIF2α phosphorylation plateaued ([1]; 4 hours-post TCR activation): 5 to 10 nM
- HF concentration inducing detectable eIF2α phosphorylation ([1]; 4 hours-post TCR activation): 2.5 nM
- HF concentration with highest ATF4 expression levels ([1]; 4 hours-post TCR activation): 5 to 10 nM
- HF concentration with reduced ATF4 expression ([1]; 4 hours-post TCR activation): 20 to 40 nM
- eIF2α phosphorylation in cultured fibroblasts (SV-MES mesangial cells): increased eIF2α phosphorylation
- concentrations that inhibit protein synthesis and cell proliferation of fibroblasts in culture (fibroblasts): over 80 nM
- doses that do not cause death of cultured fibroblasts (fibroblasts; over a period of 5 days): up to 500 nM
